# Experimental data taken from patent publication US5210193A, “Piperazine derivatives” (American Cyanamid Company, priority 1990, dated 1993).
# Where a name gives a salt, the structure may show the parent alone. Read-outs that look alike come from different tables or passages of the source.
# Columns and labels:
# Assay in all cases: in vitro antibacterial MIC, agar plate dilution
# Type in all cases: cell-based
# [1] = system: Proteus rettgeri IO 83-21; conditions: Providencia rettgeri, IO8321, 18 h, 35° C., read-out: MIC
# Method in brief: (§1)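 Read-out is visible growth inhibition on Mueller-Hinton agar dilution plates incubated 18 hours at 35° C after inoculation of ~10^4 CFU (Steers device), with MIC reported in mcg/ml.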
# [2] = system: Staphylococcus aureus VGH 84-45; conditions: 18 hours, 35° C., monohydrochloride
# Method in brief: as §1
# [3] = system: Streptococcus faecalis CMC 83-120; conditions: Enterococcus faecalis, CMC83120, 18 h, 35° C., read-out: MIC
# Method in brief: as §1
# [4] = system: Escherichia coli CMC 84-50; conditions: Escherichia coli, CMC8450, 18 h, 35° C., read-out: MIC
# Method in brief: as §1
# [5] = system: Serratia marcescens CMC 83-74; conditions: Serratia marcescens, CMC8374, 18 h, 35° C., read-out: MIC
# Method in brief: as §1
# [6] = system: Proteus rettgeri CMC 84-41; conditions: 18 hours, 35° C., monohydrochloride
# Method in brief: as §1
# [7] = system: Serratia marcescens VGH 84-30; conditions: Serratia marcescens, VGH8430, 18 h, 35° C., read-out: MIC
# Method in brief: as §1
# [8] = system: Staphylococcus aureus ATTC 29213; conditions: 35° C.
# Method in brief: as §1
# [9] = system: Escherichia coli VGH 84-19; conditions: Escherichia coli, VGH8419, 18 h, 35° C., read-out: MIC
# Method in brief: as §1
# [10] = system: Streptococcus faecalis UCI 85-19; conditions: Enterococcus faecalis, UCI8519, 18 h, 35° C., read-out: MIC
# Method in brief: as §1
# [11] = system: Enterobacter cloacae VGH 84-39; conditions: Enterobacter cloacae, VGH8439, 18 h, 35° C., read-out: MIC
# Method in brief: as §1
# [12] = system: Morganella morganii MOR 84-45; conditions: Morganella morganii, MOR8445, 18 h, 35° C., read-out: MIC
# Method in brief: as §1
# [13] = system: Enterobacter cloacae MOR 84-30; conditions: Enterobacter cloacae, MOR8430, 18 h, 35° C., read-out: MIC
# Method in brief: as §1
# [14] = system: Escherichia coli MOR 84-20; conditions: Escherichia coli, MOR8420, 18 h, 35° C., read-out: MIC
# Method in brief: as §1
# [15] = system: Enterobacter cloacae K 84-10; conditions: 18 hours, 35° C., monohydrochloride
# Method in brief: as §1
# [16] = system: Pseudomonas aeruginosa VGH 84-4; conditions: 18 hours, 35° C., monohydrochloride
# Method in brief: as §1
# [17] = system: Escherichia coli CMC 84-11; conditions: 18 hours, 35° C., monohydrochloride
# Method in brief: as §1
# [18] = system: Pseudomonas aeruginosa CMC 83-20; conditions: Pseudomonas aeruginosa, CMC8320, 18 h, 35° C., read-out: MIC
# Method in brief: as §1
# [19] = system: Klebsiella pneumoniae CMC 84-31; conditions: Klebsiella pneumoniae, CMC8431, 18 h, 35° C., read-out: MIC
# Method in brief: as §1
# [20] = system: Serratia marcescens IO 83-63; conditions: IO8363, 18 hours, 35° C.
# Method in brief: as §1
# [21] = system: Providencia stuarti CMC 83-3; conditions: Providencia, CMC833, 18 h, 35° C., read-out: MIC
# Method in brief: as §1
# Escherichia coli LL 311 = conditions: Escherichia coli, LL311, 18 h, 35° C., read-out: MIC
# Method in brief: as §1
# [22] = system: Staphylococcus aureus K 82-26; conditions: Staphylococcus aureus, K8226, 18 h, 35° C., read-out: MIC
# Method in brief: as §1
# [23] = system: Pseudomonas aeruginosa VGH 84-3; conditions: Pseudomonas aeruginosa, VGH843, 18 h, 35° C., read-out: MIC
# Method in brief: as §1
# [24] = system: Staphylococcus aureus VGH 84-47; conditions: Staphylococcus aureus, VGH8447, 18 h, 35° C., read-out: MIC
# Method in brief: as §1
# [25] = system: Streptococcus faecalis VGH 84-65; conditions: 18 hours, 35° C., monohydrochloride
# Method in brief: as §1
# [26] = system: Klebsiella pneumoniae IO 83-5; conditions: Klebsiella pneumoniae, IO835, 18 h, 35° C., read-out: MIC
# Method in brief: as §1
# [27] = system: Streptococcus faecalis VGH 84-69; conditions: Enterococcus faecalis, VGH8469, 18 h, 35° C., read-out: MIC
# Method in brief: as §1
# [28] = system: Morganella morganii VHG 84-12; conditions: Morganella morganii, VHG8412, 18 h, Morganella morganii VHG 84-12 (VGH 84-12 for Example 131), 35° C., read-out: MIC
# Method in brief: as §1
# Citrobacter div. K 82-24 = conditions: Citrobacter, DIV.K8224, 18 h, 35° C., read-out: MIC
# Method in brief: as §1
# [29] = system: Staphylococcus aureus Smith; conditions: 18 hours, 35° C., monohydrochloride
# Method in brief: as §1
# [30] = system: Streptococcus faecalis UCI 85-30; conditions: Enterococcus faecalis, UCI8530, 18 h, 35° C., read-out: MIC
# Method in brief: as §1
# [31] = system: Morganella morganii CMC 84-38; conditions: Morganella morganii, CMC8438, 18 h, 35° C., read-out: MIC
# Method in brief: as §1
# [32] = system: Serratia marcescens K 84-18; conditions: 18 hours, 35° C., monohydrochloride
# Method in brief: as §1
# [33] = system: Serratia marcescens MOR 84-41; conditions: Serratia marcescens, MOR8441, 18 h, 35° C., read-out: MIC
# Method in brief: as §1
# [34] = system: Morganella morganii CMC 84-37; conditions: Morganella morganii, CMC8437, 18 h, 35° C., read-out: MIC
# Method in brief: as §1
# [35] = system: Klebsiella pneumoniae MOR 84-24; conditions: Klebsiella pneumoniae, MOR8424, 18 h, 35° C., read-out: MIC
# Method in brief: as §1
# [36] = system: Pseudomonas aeruginosa K 84-16; conditions: Pseudomonas aeruginosa, K8416, 18 h, 35° C., read-out: MIC
# Method in brief: as §1
# [37] = system: Escherichia coli ATCC 25922; conditions: 35° C.
# Method in brief: as §1
# [38] = system: Pseudomonas aeruginosa LL-1244; conditions: Pseudomonas aeruginosa, LL1244, 18 h, 35° C., read-out: MIC
# Method in brief: as §1
structure (smiles),measurement,setting,value
"O=C(O)c1cn(C2CC2)c2cc(N3CCNC(c4ccsc4)C3)c(F)cc2c1=O (stereo not drawn) [Example 98, 1-Cyclopropyl-6-fluoro-1,4-dihydro-4-oxo-7-[3-(3-thienyl)-1-piperazinyl]-3-quinolinecarboxylic acid, monohydrochloride]",MIC,[1],0.5 µg/mL
same,MIC,[2],0.03 µg/mL
same,MIC,[3],1 µg/mL
same,MIC,[4],0.12 µg/mL
same,MIC,[5],8 µg/mL
same,MIC,[6],0.12 µg/mL
same,MIC,[7],4 µg/mL
same,MIC,"[8]; 18 hours, monohydrochloride",0.12 µg/mL
same,MIC,"[8]; Staphylococcus aureus, ATTC29213, 18 h, read-out: MIC",0.06 µg/mL
same,MIC,[9],0.12 µg/mL
same,MIC,[10],0.5 µg/mL
same,MIC,[11],0.12 µg/mL
same,MIC,[12],0.12 µg/mL
same,MIC,[13],1 µg/mL
same,MIC,[14],0.12 µg/mL
same,MIC,[15],0.06 µg/mL
same,MIC,[16],2 µg/mL
same,MIC,[17],0.03 µg/mL
same,MIC,[18],4 µg/mL
same,MIC,[19],0.12 µg/mL
same,MIC,[20],1 µg/mL
same,MIC,[21],8 µg/mL
same,MIC,Escherichia coli LL 311,0.03 µg/mL
same,MIC,[22],0.12 µg/mL
same,MIC,[23],16 µg/mL
same,MIC,[24],0.12 µg/mL
same,MIC,[25],0.5 µg/mL
same,MIC,[26],0.25 µg/mL
same,MIC,[27],0.5 µg/mL
same,MIC,[28],0.25 µg/mL
same,MIC,Citrobacter div. K 82-24,0.12 µg/mL
same,MIC,[29],0.03 µg/mL
same,MIC,[30],1 µg/mL
same,MIC,[31],0.12 µg/mL
same,MIC,[32],0.25 µg/mL
same,MIC,[33],0.25 µg/mL
same,MIC,[34],0.06 µg/mL
same,MIC,[35],0.25 µg/mL
same,MIC,[36],4 µg/mL
same,MIC,"[37]; 18 hours, monohydrochloride",0.12 µg/mL
same,MIC,"[37]; Escherichia coli, ATCC25922, 18 h, read-out: MIC",0.06 µg/mL
same,MIC,[38],2 µg/mL
